According to patent US8425918B2, “Use of EDTA and its derivatives for prevention and treatment of bacterial intestinal diseases of pigs and for increasing the effects of antibiotics exerted in such diseases” (Pharmatéka Gyártó´és Kereskedelmi BT, priority 2007, dated 2013):

Legend:
[1] = test system: Brachyspira infection; assay: Example 5.3: lincomycin nourishment with or without EDTA Na2 salt, livestock with bloody diarrhoea partly resistant to lincomycin; type: in vivo, pigs
Excerpt: (§1) Testing of Compositions Comprising EDTA on Pigs Suffering from Bloody Diarrhoea (Brachyspira Infection)
At a pig farm infected with the pathogen a nourishment comprising 110 ppm of lincomycin was fed with the livestock suffering from bloody diarrhoea. […] The livestock was separated proportionally, and in the test group 240 ppm of EDTA Na2 salt was admixed to the nourishment, utilizing the premix according to Example 1.

[2] = test system: Brachyspira infection; assay: Example 5.4: lincomycin-resistant animals, lincomycin therapy maintained plus EDTA Na2 in drinking water; type: in vivo, pigs
Method: as §1
In a part of the lincomycin-resistant animals belonging to the livestock according to Example 5.3, no treatment with another antibiotic was performed, but lincomycin therapy was maintained and simultaneously drinking water comprising 60 ppm of EDTA Na2 was added to the animals.

[3] = test system: Brachyspira infection; assay: Example 5.2: treatment of pigs suffering from bloody diarrhoea, EDTA Na2 in drinking water; type: in vivo
Method: as §1
Pigs suffering from bloody diarrhoea, husbanded on the farm according to Example 5.1, were treated with EDTA Na2 in such a way that 200 ppm of EDTA Na2 were dissolved in the drinking water of the animals. […] In the control group where on the day following the cease of diarrhoea the animals were returned to drinking of pure water bloody diarrhoea reappeared after 4 days.

[4] = test system: Brachyspira infection; assay: Example 5.1: prevention of bloody diarrhoea, EDTA Na2 salt in the fodder on an infected pig farm; type: in vivo, pigs; details: 240 ppm EDTA Na2 salt in fodder via premix of Example 1
Excerpt: as §1
On a pig farm infected with the pathogen 3 test groups of 20 animals each and one control group of 20 animals were formed from 90 days old piglets. The fodder of the animals belonging to the test groups was complemented throughout the test period (which lasted to slaughtering) with 240 ppm of EDTA Na2 salt utilizing the premix as described in Example 1.

[5] = test system: Brachyspira infection; assay: Example 5.5: prevention in weaned piglets with complemented nourishment; type: in vivo, pigs; details: test group: nourishment with 240 ppm EDTA Na2, 22 ppm essential oils (1:1 oregano oil and thyme oil) and 100 ppm tannic acid
Excerpt: Testing of Compositions Comprising EDTA on Pigs Suffering from Bloody Diarrhoea (Brachyspira Infection) At a pig farm with frequently occurring bloody diarrhoea three groups were formed randomly from weaned piglets at switching to solid nourishment. In the first group (test group) the animals were fed continuously with a nourishment comprising 240 ppm of EDTA Na2, 22 ppm of essential oils (1:1 mixture of oregano oil and thyme oil) and 100 ppm of tannic acid. In the second group (control group 1) the animals were fed continuously with a nourishment comprising essential oils and tannic acid in the above amounts but free of EDTA Na2. In the third group (control group 2) no EDTA Na2, essential oils or tannic acid were added to the nourishment of the animals. After a certain period of time soft faeces and then bloody diarrhoea appeared in the animals of control group 2 (fed with a nourishment without completion). Bacteria of Brachospira type were detected in the faeces.

| Structure (SMILES) | cessation of bloody diarrhoea ([1]; 240 ppm EDTA Na2 salt (premix of Example 1) admixed to nourishment comprising 110 ppm lincomycin) | later occurrence of bloody diarrhoea ([1]; continued feeding with fodder comprising EDTA Na2 salt) | pathogenic bacteria in the faeces ([2]; 60 ppm EDTA Na2 in drinking water with lincomycin) | cessation of diarrhoea ([2]; 60 ppm EDTA Na2 in drinking water, lincomycin therapy maintained, lincomycin-resistant animals) | reoccurrence of diarrhoea ([2]; after terminating lincomycin, EDTA Na2 in drinking water continued) | cessation of bloody diarrhoea ([3]; 200 ppm EDTA Na2 dissolved in drinking water) | time to reappearance of bloody diarrhoea after withdrawal ([3]; animals returned to pure water on the day following the cease of diarrhoea) | reoccurrence of bloody diarrhoea ([3]; while 200 ppm EDTA Na2 was maintained in the drinking water) | appearance of bloody diarrhoea ([4]; 90 days old piglets, until slaughtering) | need for antibiotic treatment ([4]; compared with the other animals of the farm) | abnormal biological symptoms (soft faeces, bloody diarrhoea) [5] | persistence of bloody diarrhoea ([1]; control group: nourishment comprising 110 ppm lincomycin without EDTA Na2 salt) |
| --- | --- | --- | --- | --- | --- | --- | --- | --- | --- | --- | --- | --- |
| O=C([O-])CN(CCN(CC(=O)[O-])CC(=O)O)CC(=O)O.[Na+].[Na+] [EDTA Na2 salt] | completely ceased on the third day | no bloody diarrhoea occurred | No pathogenic bacteria could be detected | ceased completely within some days | did not reoccur | ceased on the third day | 4 days | did not reoccur | No bloody diarrhoea appeared | no antibiotic treatment of the animals of the test groups was required | no abnormal biological symptom could be observed |  |
| CCC[C@@H]1C[C@@H](C(=O)N[C@@H]([C@H]2O[C@H](SC)[C@H](O)[C@@H](O)[C@H]2O)[C@@H](C)O)N(C)C1 [lincomycin, reference compound] |  |  |  |  |  |  |  |  |  |  |  | bloody diarrhoea still persisted |
